From publication PMC11078746 (Nature, 2024)

Tests used:
SNU520 [1] = assay: 4 day proliferation assay (CellTiter-Glo); details: Homo sapiens, 96 h, read-out: 4 day assay GI50
SNU407 = assay: 4 day proliferation assay (CellTiter-Glo); details: Homo sapiens, SNU-407, 96 h, read-out: 4 day assay GI50
CW2 = assay: CFA 10-14 day clonogenic assay; format: cell-based; details: Homo sapiens, CW-2
NUGC3 = assay: 4 day proliferation assay (CellTiter-Glo); details: Homo sapiens, NUGC-3, 96 h, read-out: 4 day assay GI50
HEC59 = assay: 4 day proliferation assay (CellTiter-Glo); details: Homo sapiens, 96 h, read-out: 4 day assay GI50
LS180 = assay: 4 day proliferation assay (CellTiter-Glo); details: Homo sapiens, LS180, 96 h, read-out: 4 day assay GI50
JHUEM2 = assay: CFA 10-14 day clonogenic assay; format: cell-based; details: Homo sapiens
TK6 = assay: in vitro TK6 MNT; format: cell-based
[2] = tested on: WRN protein in MSI and MSS cells; assay: WRN degradation (immunoblot, ELISA); format: cell-based, human
Protocol: A list of all of the antibodies is provided in Supplementary Table 2. […] The plates were washed in PBS and 200 µl per well of blocking reagent added (PBS, 0.05% Tween-20, 5% skimmed milk), and the plates were incubated for a minimum of 2 h at room temperature. […] The plates were then washed and 50 µl of secondary antibody per well diluted in blocking buffer was added and the plates were incubated overnight at 4 °C. The next day, 50 µl of tertiary antibody was added per well buffer and the plates were incubated for 2 h at room temperature. […] The plates were shaken and luminescence was detected immediately on the Synergy HT microplate reader.

OVK18 = assay: CFA 10-14 day clonogenic assay; format: cell-based; details: Homo sapiens
JHUEM1 = assay: 4 day proliferation assay (CellTiter-Glo); details: Homo sapiens, 96 h, read-out: 4 day assay GI50
SNUC5 = assay: 4 day proliferation assay (CellTiter-Glo); details: Homo sapiens, 96 h, read-out: 4 day assay GI50
HEC108 = assay: 4 day proliferation assay (CellTiter-Glo); details: Homo sapiens, 96 h, read-out: 4 day assay GI50
OC314 = assay: 4 day proliferation assay (CellTiter-Glo); details: Homo sapiens, OC-314, 96 h, read-out: 4 day assay GI50
IGROV1 = assay: 4 day proliferation assay (CellTiter-Glo); details: Homo sapiens, IGROV-1, 96 h, read-out: 4 day assay GI50
SNU520 [3] = assay: CFA 10-14 day clonogenic assay; format: cell-based; details: Homo sapiens

## CCc1c(N2CCN(C(=O)c3ncnc(C)c3O)CC2)c(=O)n2nc(C3=CCOCC3)nc2n1CC(=O)Nc1ccc(C(F)(F)F)cc1Cl [HRO761]
SNU520 [1]
  GI50: ≥ 10000 nM
SNU407
  GI50: 440 nM
CW2
  GI50: 68 nM
NUGC3
  GI50: ≥ 10000 nM
HEC59
  GI50: ≥ 10000 nM
LS180
  GI50: 3500 nM
JHUEM2
  GI50: 929 nM
TK6
  in vitro TK6 MNT: Negative
[2]
  WRN degradation, dependence on MSI/MSS status: only in MSI cells
OVK18
  GI50: 150 nM
JHUEM1
  GI50: 946 nM
SNUC5
  GI50: 7240 nM
HEC108
  GI50: 1460 nM
OC314
  GI50: ≥ 10000 nM
IGROV1
  GI50: 2760 nM
SNU520 [3]
  GI50: 1740 nM
